Results: patent EP0612472A1, “Herbicidal combinations comprising triazole derivatives (III)” (MONSANTO EUROPE S.A., priority 1993, dated 1994)

System: Galium aparine
Experiment: field experiment, tank mix, Belgium
Assay type: in vivo
Text: A field experiment has been carried out during winter time (November 1990) in Belgium.
Application was made at 250 l/ha using standard spraying equipment (Backpack sprayer; Nozzles XR 11003). Randomised block design with 3 replicates was used. Unit plot size was 2 X 6m². The soil surface was moist. Total ground cover: 20% crop, 10% weeds and 70% bare ground.
The plant species tested and corresponding true leave stage are:
The herbicides tested are the herbicide A as described in Example 1 in tank mix with another phytohormone type of herbicide, that is mecoprop. 0.2% surfactant (Tween® 20) has been added to the tank.
The results in table 2 hereafter are presented as average values of three replications.

With `Cc1cc(Cl)ccc1OC(C)C(=O)O` (centres unmarked) [mecoprop] as the compound, how does the “control, GALAP 120 DAT” value (RATE 1000 g a.i/ha) read?
The value was 73.3%.

And the “control, GALAP 120 DAT” value (RATE 1200 g a.i/ha)?
The value was 66.7%.
